Values joined by “and” are separate entries in the source; they are usually repeats but may differ in a detail not shown here. Identical values can stand only once.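 In this assay, cells in 96-well plates receive the compound at five concentrations for 48 hours. Endpoints are linearly interpolated between the surrounding concentrations. GI50 is the concentration that inhibits growth by half. At the TGI there is no net growth.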

The test system of one assay is SNB-19 CNS. Nature of the assay: NCI-60 cell line screen, 48 h.
On to `O=[n+]1c(CBr)c(CBr)n([O-])c2ccccc21`, for which the GI50 is 17.6 µM and the TGI turned out to be 38.3 µM.
For the molecule `Fc1ccc(-c2nn(-c3ccccc3)cc2-c2nc3ccccc3o2)cc1`, the GI50 is 4.82 µM and the TGI came out at 53.1 µM.
As to `OCc1c(-c2cccc3ccccc23)sc(-c2cccc3ccccc23)c1CO`, the TGI stood at 25.4 µM.
For the molecule `O=c1c(Cl)c(Cl)cnn1-c1ccccc1`, the GI50 was 4.93 µM and > 23.2 µM; the TGI was 13.7 µM and > 41.7 µM.
For the molecule `COc1ccc(-n2cc(-c3ccc(OC)c(OC)c3)[nH]c2=S)cc1Cl`, the GI50 is greater than 100 µM and the TGI is greater than 100 µM.
Molecule `O=C1Oc2cc3c(c4cccc1c24)OCN(c1ccc(Cl)cc1)C3` came in with a TGI greater than 100 µM.
As to `CN(C)CCNc1nc2ccccc2c2[nH]c3ccccc3c12`, the GI50 is 1.04 µM and the TGI was 8 µM.
`OCCNCO` returned a TGI greater than 100 µM.
Regarding `CC(=O)c1ccc(N(/C=C/C(=O)C(F)(F)F)CC(=O)c2ccc(Cl)c(Cl)c2)cc1`, the GI50 is 19.3 µM and the TGI was determined as 41.6 µM.
The molecule `COc1cc2c(c(O)c1C)C(=O)C(Cl)=CC2=O` showed a TGI greater than 86.4 µM.
For `COc1cc2c(cc1OC)C1C=NC(C(=O)O)(C2)c2ccccc21` (stereo unspecified), the TGI was greater than 100 µM.
Take `Clc1cccc(NC=Nc2ccc(-c3nc4ccccc4s3)cc2)c1`: the GI50 was 15.2 µM and the TGI is greater than 50 µM.
The molecule `CN(C)S(=O)(=O)Nc1ccccn1` showed a TGI greater than 100 µM.
Take `O=C1c2ccccc2C(=O)c2c1ccc1[nH]c(CCl)nc21`: the GI50 was 3.52 µM and the TGI worked out at 13.6 µM.
In the case of `CCN1CCN(c2nc(NCCNc3ccnc4cc(Cl)ccc34)c3ccccc3n2)CC1`, the GI50 is 1.99 µM and the TGI is 14 µM.
The matching figures for `COc1ccccc1NC(=O)c1ccc(/C=C/C(=O)c2nccn2C)cc1`: 0.553 µM and 1.59 µM.
As for `CN(C)CCNC(=O)c1cccc2nc3c(Cl)cccc3nc12`, the TGI stood at 57 µM.
On to `Cn1cc(C2=C(c3ccc(OC[C@@H](O)CO)cc3)C(=O)NC2=O)c2ccccc21`, for which the GI50 was greater than 25 µM and the TGI is greater than 25 µM.

For a further assay, the system named is HOP-92 NSCLC. As to the kind of experiment: NCI-60 cell line screen, 48 h.
With `O=[n+]1c(CBr)c(CBr)n([O-])c2ccccc21`, the GI50 is 4.61 µM and the TGI was found to be 17.8 µM.
The matching figures for `Fc1ccc(-c2nn(-c3ccccc3)cc2-c2nc3ccccc3o2)cc1`: 0.158 µM and 4.48 µM.
`OCc1c(-c2cccc3ccccc23)sc(-c2cccc3ccccc23)c1CO` displayed a TGI of 30.7 µM.
Consider `O=c1c(Cl)c(Cl)cnn1-c1ccccc1`, for which the GI50 was 1.98 µM and 7.58 µM; the TGI was 3.61 µM and 16 µM.
Turning to `COc1ccc(-n2cc(-c3ccc(OC)c(OC)c3)[nH]c2=S)cc1Cl`, the GI50 is 37.3 µM and the TGI was greater than 100 µM.
`O=C1Oc2cc3c(c4cccc1c24)OCN(c1ccc(Cl)cc1)C3` returned a TGI of 49.1 µM.
On to `CN(C)CCNc1nc2ccccc2c2[nH]c3ccccc3c12`, for which the GI50 was 0.464 µM and the TGI was 2.42 µM.
The molecule `OCCNCO` registered a TGI greater than 100 µM.
As to `CC(=O)c1ccc(N(/C=C/C(=O)C(F)(F)F)CC(=O)c2ccc(Cl)c(Cl)c2)cc1`, the GI50 is 13.5 µM and the TGI is 29 µM.
Take `COc1cc2c(c(O)c1C)C(=O)C(Cl)=CC2=O`: the TGI is 11.5 µM.
Consider `COc1cc2c(cc1OC)C1C=NC(C(=O)O)(C2)c2ccccc21` (stereo unspecified), for which the TGI was greater than 100 µM.
For the molecule `Clc1cccc(NC=Nc2ccc(-c3nc4ccccc4s3)cc2)c1`, the GI50 is 19.6 µM and the TGI is greater than 50 µM.
On to `CN(C)S(=O)(=O)Nc1ccccn1`, for which the TGI was greater than 100 µM.
In the case of `O=C1c2ccccc2C(=O)c2c1ccc1[nH]c(CCl)nc21`, the GI50 was 1.58 µM and the TGI turned out to be 6.26 µM.
As for `CCN1CCN(c2nc(NCCNc3ccnc4cc(Cl)ccc34)c3ccccc3n2)CC1`, the GI50 is 1.14 µM and the TGI was found to be 2.49 µM.
For the molecule `COc1ccccc1NC(=O)c1ccc(/C=C/C(=O)c2nccn2C)cc1`, the GI50 is 0.673 µM and the TGI came out at 5.01 µM.
The molecule `CN(C)CCNC(=O)c1cccc2nc3c(Cl)cccc3nc12` gave a TGI greater than 24.2 µM.
For `Cn1cc(C2=C(c3ccc(OC[C@@H](O)CO)cc3)C(=O)NC2=O)c2ccccc21`, the GI50 is greater than 25 µM and the TGI is greater than 25 µM.

The next assay concerns SN12C renal. As to the kind of experiment: NCI-60 cell line screen, 48 h.
As for `O=[n+]1c(CBr)c(CBr)n([O-])c2ccccc21`, the GI50 was 11 µM and the TGI was found to be 24.3 µM.
For `Fc1ccc(-c2nn(-c3ccccc3)cc2-c2nc3ccccc3o2)cc1`, the GI50 was 6.15 µM and the TGI came to 33.5 µM.
Regarding `OCc1c(-c2cccc3ccccc23)sc(-c2cccc3ccccc23)c1CO`, the TGI is 26.8 µM.
The same measure, in the same setting: the same measure for `O=c1c(Cl)c(Cl)cnn1-c1ccccc1`: 8.88 µM and 4.01 µM.
Turning to `COc1ccc(-n2cc(-c3ccc(OC)c(OC)c3)[nH]c2=S)cc1Cl`, the GI50 was greater than 100 µM and the TGI was greater than 100 µM.
In turn, `O=C1Oc2cc3c(c4cccc1c24)OCN(c1ccc(Cl)cc1)C3` gave a TGI of 29.1 µM.
`CN(C)CCNc1nc2ccccc2c2[nH]c3ccccc3c12`: the GI50 was 0.693 µM and the TGI came out at 2.82 µM.
The molecule `OCCNCO` yielded a TGI greater than 100 µM.
As to `CC(=O)c1ccc(N(/C=C/C(=O)C(F)(F)F)CC(=O)c2ccc(Cl)c(Cl)c2)cc1`, the GI50 was 15 µM and the TGI is 28.8 µM.
In turn, `COc1cc2c(c(O)c1C)C(=O)C(Cl)=CC2=O` registered a TGI of 27.6 µM.
As for `COc1cc2c(cc1OC)C1C=NC(C(=O)O)(C2)c2ccccc21` (stereo unspecified), the TGI is greater than 100 µM.
As to `Clc1cccc(NC=Nc2ccc(-c3nc4ccccc4s3)cc2)c1`, the GI50 is 20.4 µM and the TGI is greater than 50 µM.
In the case of `CN(C)S(=O)(=O)Nc1ccccn1`, the TGI is greater than 100 µM.
For the molecule `O=C1c2ccccc2C(=O)c2c1ccc1[nH]c(CCl)nc21`, the GI50 was 2.08 µM and the TGI came to 4.87 µM.
On to `CCN1CCN(c2nc(NCCNc3ccnc4cc(Cl)ccc34)c3ccccc3n2)CC1`, for which the GI50 was 1.21 µM and the TGI is 2.88 µM.
Regarding `COc1ccccc1NC(=O)c1ccc(/C=C/C(=O)c2nccn2C)cc1`, the GI50 is 0.592 µM and the TGI was 1.56 µM.
Turning to `CN(C)CCNC(=O)c1cccc2nc3c(Cl)cccc3nc12`, the TGI came out at 49.5 µM.
`Cn1cc(C2=C(c3ccc(OC[C@@H](O)CO)cc3)C(=O)NC2=O)c2ccccc21`: the GI50 was greater than 25 µM and the TGI is greater than 25 µM.

A further assay concerns IGROV1 ovarian. Nature of the assay: NCI-60 cell line screen, 48 h.
Regarding `O=[n+]1c(CBr)c(CBr)n([O-])c2ccccc21`, the GI50 is 10.5 µM and the TGI is 31 µM.
`Fc1ccc(-c2nn(-c3ccccc3)cc2-c2nc3ccccc3o2)cc1`: the GI50 is 3.94 µM and the TGI is 39.3 µM.
`OCc1c(-c2cccc3ccccc23)sc(-c2cccc3ccccc23)c1CO`: the TGI came out at 28 µM.
Take `O=c1c(Cl)c(Cl)cnn1-c1ccccc1`: the GI50 was 1.81 µM and 7.02 µM; the TGI was 3.37 µM and 21.5 µM.
With `COc1ccc(-n2cc(-c3ccc(OC)c(OC)c3)[nH]c2=S)cc1Cl`, the GI50 is greater than 100 µM and the TGI is greater than 100 µM.
The molecule `O=C1Oc2cc3c(c4cccc1c24)OCN(c1ccc(Cl)cc1)C3` had a TGI greater than 100 µM.
For the molecule `CN(C)CCNc1nc2ccccc2c2[nH]c3ccccc3c12`, the GI50 was 0.97 µM and the TGI is greater than 31.7 µM.
`OCCNCO` yielded a TGI greater than 100 µM.
On to `CC(=O)c1ccc(N(/C=C/C(=O)C(F)(F)F)CC(=O)c2ccc(Cl)c(Cl)c2)cc1`, for which the GI50 was 13.9 µM and the TGI came to 28.4 µM.
In turn, `COc1cc2c(c(O)c1C)C(=O)C(Cl)=CC2=O` showed a TGI of 40.2 µM.
Consider `COc1cc2c(cc1OC)C1C=NC(C(=O)O)(C2)c2ccccc21` (stereo unspecified), for which the TGI was greater than 100 µM.
For `Clc1cccc(NC=Nc2ccc(-c3nc4ccccc4s3)cc2)c1`, the GI50 is 11.3 µM and the TGI was 24.3 µM.
As for `CN(C)S(=O)(=O)Nc1ccccn1`, the TGI is greater than 100 µM.
Take `O=C1c2ccccc2C(=O)c2c1ccc1[nH]c(CCl)nc21`: the GI50 was 2.03 µM and the TGI was determined as 6.59 µM.
As for `CCN1CCN(c2nc(NCCNc3ccnc4cc(Cl)ccc34)c3ccccc3n2)CC1`, the GI50 was 1.62 µM and the TGI was 4.69 µM.
For the molecule `COc1ccccc1NC(=O)c1ccc(/C=C/C(=O)c2nccn2C)cc1`, the GI50 is 0.523 µM and the TGI stood at 1.34 µM.
`CN(C)CCNC(=O)c1cccc2nc3c(Cl)cccc3nc12` came in with a TGI greater than 86.4 µM.
Take `Cn1cc(C2=C(c3ccc(OC[C@@H](O)CO)cc3)C(=O)NC2=O)c2ccccc21`: the GI50 was greater than 25 µM and the TGI is greater than 25 µM.

For another assay, the system named is M14 melanoma. Nature of the assay: NCI-60 cell line screen, 48 h.
Take `O=[n+]1c(CBr)c(CBr)n([O-])c2ccccc21`: the GI50 was 4.65 µM and the TGI came to 17.6 µM.
On to `Fc1ccc(-c2nn(-c3ccccc3)cc2-c2nc3ccccc3o2)cc1`, for which the GI50 was 3.91 µM and the TGI is 15.1 µM.
In turn, `OCc1c(-c2cccc3ccccc23)sc(-c2cccc3ccccc23)c1CO` displayed a TGI of 28.9 µM.
Regarding `O=c1c(Cl)c(Cl)cnn1-c1ccccc1`, the TGI was 3.25 µM and 3.42 µM.
Take `COc1ccc(-n2cc(-c3ccc(OC)c(OC)c3)[nH]c2=S)cc1Cl`: the GI50 is greater than 100 µM and the TGI was greater than 100 µM.
The molecule `O=C1Oc2cc3c(c4cccc1c24)OCN(c1ccc(Cl)cc1)C3` yielded a TGI greater than 57.8 µM.
Regarding `CN(C)CCNc1nc2ccccc2c2[nH]c3ccccc3c12`, the GI50 was 0.41 µM and the TGI turned out to be 1.71 µM.
Regarding `OCCNCO`, the TGI was greater than 100 µM.
`CC(=O)c1ccc(N(/C=C/C(=O)C(F)(F)F)CC(=O)c2ccc(Cl)c(Cl)c2)cc1`: the GI50 is 13.3 µM and the TGI came out at 26.7 µM.
In turn, `COc1cc2c(c(O)c1C)C(=O)C(Cl)=CC2=O` came in with a TGI of 16.5 µM.
`COc1cc2c(cc1OC)C1C=NC(C(=O)O)(C2)c2ccccc21` (stereo unspecified): the TGI is greater than 100 µM.
As to `Clc1cccc(NC=Nc2ccc(-c3nc4ccccc4s3)cc2)c1`, the GI50 is 14.8 µM and the TGI is 29.7 µM.
For `CN(C)S(=O)(=O)Nc1ccccn1`, the TGI was greater than 100 µM.
For the molecule `O=C1c2ccccc2C(=O)c2c1ccc1[nH]c(CCl)nc21`, the GI50 is 9.97 µM and the TGI is 22.8 µM.
Turning to `CCN1CCN(c2nc(NCCNc3ccnc4cc(Cl)ccc34)c3ccccc3n2)CC1`, the GI50 is 1.59 µM and the TGI was determined as 3.36 µM.
Take `COc1ccccc1NC(=O)c1ccc(/C=C/C(=O)c2nccn2C)cc1`: the GI50 was 0.536 µM and the TGI stood at 1.31 µM.
In turn, `CN(C)CCNC(=O)c1cccc2nc3c(Cl)cccc3nc12` registered a TGI greater than 36.8 µM.

The values are drawn from PubChem BioAssay (NCI).
